Measured values from publication PMC8707700, “Ru(III) Complexes with Lonidamine-Modified Ligands” (International Journal of Molecular Sciences, 2021).

Assays:
[1] = target: T1, isolated rat TrxR1 (rat liver TrxR) (Rattus norvegicus, UniProt O89049); assay: Inhibition of purified TrxR (DTNB reduction); format: biochemical; conditions: isolated enzyme, 75 min 37 °C preincubation; mean ± SD, three measurements
T1 construct: Commercially available rat liver TrxR; purchased Sigma Aldrich; host or cells: rat liver
T1 sequence (O89049 1-499): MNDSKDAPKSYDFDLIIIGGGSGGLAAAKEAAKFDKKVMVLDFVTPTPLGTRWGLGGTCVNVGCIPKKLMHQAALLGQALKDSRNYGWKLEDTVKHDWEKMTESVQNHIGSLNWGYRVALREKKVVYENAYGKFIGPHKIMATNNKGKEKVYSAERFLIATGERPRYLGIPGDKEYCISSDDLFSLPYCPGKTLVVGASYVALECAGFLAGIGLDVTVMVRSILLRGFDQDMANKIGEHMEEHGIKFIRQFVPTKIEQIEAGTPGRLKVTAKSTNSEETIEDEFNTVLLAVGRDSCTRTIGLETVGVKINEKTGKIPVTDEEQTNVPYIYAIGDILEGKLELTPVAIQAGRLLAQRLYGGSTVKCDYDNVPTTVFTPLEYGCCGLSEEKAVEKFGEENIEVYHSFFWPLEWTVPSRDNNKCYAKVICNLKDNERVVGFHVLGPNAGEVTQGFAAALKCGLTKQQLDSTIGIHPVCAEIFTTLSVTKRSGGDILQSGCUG
Protocol: The activity of TrxR [40, 54] was determined in a microplate format. Commercially available rat liver TrxR (Sigma Aldrich, St. Louis, MO, USA) was diluted with distilled water to 3.5 Unit/mL. In total, 25 μL aliquots of this solution were mixed with 25 μL of a potassium phosphate buffer, pH 7.0, with or without tested compounds. Fifty µL of 0.5% v/v dimethyl formamide in buffer was served as a blank. […] For this purpose, 25 µL of the highest test concentration of each compound and 25 µL of phosphate buffer (no enzyme) were mixed. Samples were incubated with moderate shaking for 75 min at 37 °C in a 96-well plate. To each well, 225 μL of the reaction mixture (500 μL of potassium phosphate buffer, pH 7.0, 80 μL of 100 mM ethylenediaminetetraacetic acid (EDTA), 20 μL of 0.2% bovine serum albumin, 100 μL of 20 mM NADPH (nicotinamide adenine dinucleotide phosphate), and 300 μL of water) was added; the reaction was initiated by the addition of 25 μL of 20 mM DTNB (5,5′-dithiobis(2-nitrobenzoic acid)) solution in ethanol. The formation of 5-TNB was monitored at 405 nm 10 times at 35 s intervals by a VICTOR X4 Plate Reader (Perkin Elmer). […] IC50 values were calculated as the concentration of the compound that decreased the enzymatic activity of the control (no compound) by 50%. Values are mean ± SD of the three independent measurements.

[2] = Stability of Ru(III) complexes in phosphate buffer by UV-vis spectrophotometry; format: physicochemical; conditions: 20 mM phosphate buffer pH 7.4, 100 mM NaCl, 37 °C
Protocol: The stability of Ru(III) complexes (15–20) was investigated in a solution resembling physiological conditions (20 mM of phosphate buffer, pH 7.4, and 100 mM of NaCl at 37 °C) by UV-vis spectrophotometry (Table 1). The half-transformation time t1/2 was calculated based on changes in the electronic absorption spectrum (Figure S1) and defined as the value of t at the Alin/2 point. ΔA(t) was plotted against λmax; the initial section was approximated as a linear function.
The stability of Ru(III) complexes was studied by electron absorption spectroscopy in 20 mM of phosphate buffer, pH 7.4, and 100 mM of NaCl. The working solution (2 mL, 200 μM complex) was prepared by diluting 10 μL of the original 40 mM solution in DMSO and 1.99 mL of phosphate buffer. UV-vis spectra were recorded every 60 s in the range of 280–600 nm at 37 °C. The half-transformation time was t1/2. For λmax, ΔA(t) was plotted, where ΔA = A0–Ai, an initial section, was approximated as a linear function. At ΔAline./2 point calculated as t = t1/2.

[3] = system: SH-SY5Y; assay: Antiproliferative activity, MTT assay; format: cell-based, human; conditions: 72 h exposure, mean ± SD
Protocol: (§1) The antiproliferative activity of new ligands and complexes was determined against human cell lines, including colon adenocarcinoma SW480, breast adenocarcinoma MCF-7, lung adenocarcinoma A549, neuroblastoma SHSY5Y, and non-tumourigenic HaCaT (Table 4). In general, complexes were more cytotoxic compared to ligands, lonidamine, and, in some cases, cisplatin. […] We chose this compound and the synthetically accessible complex 16 for mechanistic studies.
(§2) The antiproliferative activity was studied by MTT assays as published previously. For flow cytometry studies, cells were plated into 6-well plates (Eppendorf, Germany; 4 × 10^5 cells in 2 mL of DMEM) and incubated for 24 h. Solutions of complexes in DMSO were prepared immediately prior to the day of the experiments. Cells were treated with either 20 µM of cisplatin, 50 µM of 16, or 20 µM of 20. Concentrations corresponded to two-fold IC50 values based on MTT assays. Cells were incubated for 24 h, pooled, washed with cold PBS, and resuspended in DMEM. Aliquots of cells were processed as recommended in the Muse Annexin V&Dead Cell Kit or Muse Caspase-3/7 Kit (Luminex). Measurements were carried out on a Muse Cell Analyser, Luminex corp., TX, USA.

[4] = system: SW480; assay: Antiproliferative activity, MTT assay; format: cell-based, human; conditions: MTT, 72 h exposure; mean ± SD; read-out: IC50, µM SW480
Protocol: as §1, §2

[5] = system: A549; assay: Antiproliferative activity, MTT assay; format: cell-based, human; conditions: MTT, 72 h exposure; mean ± SD; read-out: IC50, µM A549
Protocol: as §1, §2

[6] = system: MCF-7; assay: Antiproliferative activity, MTT assay; format: cell-based, human; conditions: MTT, 72 h exposure; mean ± SD; read-out: IC50, µM MCF-7
Protocol: as §1, §2

[7] = system: HCT116 cells; assay: Annexin V/7-AAD flow cytometry (Muse Annexin V & Dead Cell Kit); format: cell-based; conditions: HCT116, 24 h; for Annexin V-positive cells: 2xIC50 (50 µM of 16, 20 µM of 20); for early apoptosis (Annexin V/7-AAD) / late apoptosis (Annexin V/7-AAD) / live cells (Annexin V/7-AAD) / necrosis (Annexin V/7-AAD): 2xIC50, one representative experiment
Protocol: Mechanisms of cell death, that is, Annexin V/7-AAD reactivity and caspase 3/7 activation, were determined for 16 and 20 in HCT116 cells using the Muse® Annexin V & Dead Cell Kit (Luminex corp., Austin, TX, USA) and flow cytometry. Cells were incubated with 16, 20, or cisplatin (reference drug) for 24 h at concentrations corresponding to 2xIC50 values (obtained in MTT assays; Table 4). The percentages of Annexin V-positive cells in response to 16 and 20 were higher than cisplatin (Figure 8). Complex 20 with the C12 linker induced Annexin V positivity slightly more efficiently than 16 with the C3 linker (27.4 ± 2.1% vs. 19.7 ± 0.6%).
as §2

Substance | IC50 [1] [µM] | t1/2 (half-transformation time) [2] | t1/2 (half-transformation time) ([2]; mean ± SD, three experiments) [s] | IC50 [3] [µM] | IC50 [4] [µM] | IC50 [5] [µM] | IC50 [6] [µM] | Annexin V-positive cells [7] [%] | early apoptosis (Annexin V/7-AAD) [7] [%] | late apoptosis (Annexin V/7-AAD) [7] [%] | live cells (Annexin V/7-AAD) [7] [%] | necrosis (Annexin V/7-AAD) [7] [%]
Na[trans-Ru(DMSO)(C30H37Cl2N5O)Cl4] [Compound 20] | 8.5 ± 0.3 | ~ 35 min | 2150 ± 110 | 6.1 ± 0.3 | 9.6 ± 1.3 | 8.1 ± 1.1 | 9.2 ± 0.1 | 27.4 ± 2.1 | 5 | 26 | 69 | 0
Na[trans-Ru(DMSO)(C21H19Cl2N5O)Cl4] [Compound 16] | 20.4 ± 0.1 | – | 330 ± 20 | 26.1 ± 5.5 | 25 ± 7.1 | > 30 | 23 ± 0.5 | 19.7 ± 0.6 | 3 | 20 | 78 | 0
